Results on 25 compounds are retold here after patent US8481542B2, “Pyridazinyl derivatives as smo inhibitors” (Novartis AG, priority 2008, dated 2013).

Converted amounts (≈) assume the structure as drawn. Like-named read-outs stand apart in the source and are kept apart here.

The target of data set [1] is mouse Smoothened receptor (Mus musculus, UniProt P56726). In words: Smo binding assay, displacement of radio-labeled smoothened agonist, filter binding format (mouse). As to conditions: read-out: Mouse Smo bdg., IC50. An excerpt: (§1) A Smo binding assay was developed using radio-labeled smoothened agonist for compound competition. Table 10 lists the IC50 for displacement of a small molecule agonist of Smoothened determined in a filter binding format for the mouse and human Smoothened receptor.

Data set [2] relates to Gli-luciferase activity in TMHh12 cells. In words: Reporter gene assay (RGA) in TMHh12 cells, antagonism of Gli-luciferase activity in presence of Smo agonist. The class given is cell-based. Here is the method:
Activity of the compounds was evaluated using a reporter gene assay (RGA) in TMHh12 cells.

In data set [3] the target is human Smoothened receptor (Homo sapiens, UniProt Q99835). In words: Smo binding assay, displacement of radio-labeled smoothened agonist, filter binding format (human). As to conditions: read-out: Human Smo bdg., IC50.
Description: as §1

Data set [4] in a line: equilibrium solubility at pH 6.8. Particulars: aqueous buffer, thermodynamic from solid, examples of the present invention. The class given is physicochemical.
The mark [5] stands for this setting: read-out: RGA (1 nM Smo agonist) IC50, 1 nM Smo agonist, Table 10, values as ranges.
Setting [6] is: read-out: RGA (25 nM Smo agonist) IC50, 25 nM Smo agonist, Table 10, values as ranges.
Where [7] appears, read: examples of the present invention, exact values.
Where [8] appears, read: TMHh12, read-out: RGA (1 nM Smo agonist) IC50, 1 nM Smo agonist, examples of the present invention, exact values.
Setting [9] is: TMHh12, read-out: RGA (25 nM Smo agonist) IC50, 25 nM Smo agonist, examples of the present invention, exact values.

Sequence of mouse Smoothened receptor (P56726 33-793): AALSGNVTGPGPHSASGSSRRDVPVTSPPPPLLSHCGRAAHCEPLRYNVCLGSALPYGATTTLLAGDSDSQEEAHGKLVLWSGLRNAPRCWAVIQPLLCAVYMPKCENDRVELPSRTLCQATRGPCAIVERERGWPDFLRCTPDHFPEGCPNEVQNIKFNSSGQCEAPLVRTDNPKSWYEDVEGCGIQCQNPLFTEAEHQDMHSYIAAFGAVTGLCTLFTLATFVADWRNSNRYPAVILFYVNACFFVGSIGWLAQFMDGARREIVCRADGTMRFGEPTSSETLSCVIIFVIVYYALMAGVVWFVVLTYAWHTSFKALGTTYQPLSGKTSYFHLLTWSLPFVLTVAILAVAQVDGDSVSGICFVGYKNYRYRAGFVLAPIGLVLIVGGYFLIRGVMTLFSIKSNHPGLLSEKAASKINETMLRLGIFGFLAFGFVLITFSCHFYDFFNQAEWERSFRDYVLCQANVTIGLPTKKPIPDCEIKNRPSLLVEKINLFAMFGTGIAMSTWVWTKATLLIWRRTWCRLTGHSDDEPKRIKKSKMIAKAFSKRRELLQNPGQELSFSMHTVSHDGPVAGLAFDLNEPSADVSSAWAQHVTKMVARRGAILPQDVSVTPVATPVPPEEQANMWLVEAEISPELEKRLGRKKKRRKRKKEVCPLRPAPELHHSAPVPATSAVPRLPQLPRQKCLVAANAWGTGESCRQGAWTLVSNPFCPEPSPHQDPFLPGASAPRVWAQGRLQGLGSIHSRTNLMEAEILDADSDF
Sequence of human Smoothened receptor (Q99835 28-787): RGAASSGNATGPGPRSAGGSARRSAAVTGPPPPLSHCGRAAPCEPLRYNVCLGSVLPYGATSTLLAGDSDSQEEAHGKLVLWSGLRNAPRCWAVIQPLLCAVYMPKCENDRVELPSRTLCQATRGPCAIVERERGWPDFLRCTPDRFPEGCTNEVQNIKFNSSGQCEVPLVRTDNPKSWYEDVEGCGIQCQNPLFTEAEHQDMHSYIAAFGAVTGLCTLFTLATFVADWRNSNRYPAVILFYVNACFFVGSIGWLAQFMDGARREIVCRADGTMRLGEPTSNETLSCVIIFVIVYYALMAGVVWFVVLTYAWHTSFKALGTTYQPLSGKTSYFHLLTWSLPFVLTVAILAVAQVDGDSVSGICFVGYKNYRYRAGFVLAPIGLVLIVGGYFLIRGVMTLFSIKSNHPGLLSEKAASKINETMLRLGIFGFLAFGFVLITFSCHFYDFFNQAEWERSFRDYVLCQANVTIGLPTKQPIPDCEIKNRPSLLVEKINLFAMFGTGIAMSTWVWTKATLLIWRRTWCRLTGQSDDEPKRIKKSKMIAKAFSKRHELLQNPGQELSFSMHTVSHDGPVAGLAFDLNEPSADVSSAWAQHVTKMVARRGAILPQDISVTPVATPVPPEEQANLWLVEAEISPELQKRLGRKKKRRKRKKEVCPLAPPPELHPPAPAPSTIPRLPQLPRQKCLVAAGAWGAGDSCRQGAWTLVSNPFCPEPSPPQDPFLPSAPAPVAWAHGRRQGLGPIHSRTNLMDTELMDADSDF

Consider “4,5-Dimethyl-3-(1-methyl-1H-tetrazol-5-ylmethyl)-6-[4-(5-trifluoromethyl-pyridin-2-yl)-piperazin-1-yl]-pyridazine & 4,5-Dimethyl-3-(2H-methyl-2H-tetrazol-5-ylmethyl)-6-[4-(5-trifluoromethyl-pyridin-2-yl)-piperazin-1-yl]-pyridazine [160/161]”, for which the IC50 (in general, the concentration that inhibits the measured activity by half) in data set [1] (Table 10, values as ranges) was in the range of 1 to 10 nM; in data set [2] (setting [5]), 1 to 10 nM; in data set [2] (setting [6]) it was 1 to 25 nM; in data set [3] (Table 10, values as ranges) it was 1 to 10 nM.

With `Cc1c(Oc2ccccc2)nnc(N2CCN(c3cnc(C(C)(C)O)cn3)[C@H](C)C2)c1C` [Example 2, 2-[(R)-4-(4,5-Dimethyl-6-phenoxy-pyridazin-3-yl)-2-methyl-3,4,5,6-tetra-hydro-2H-[1,2′]bipyrazinyl-5′-yl]-propan-2-ol], the IC50 in data set [1] (setting [7]) is 8 nM; in data set [2] (setting [8]), 2 nM; in data set [2] (setting [9]), 23 nM; in data set [3] (setting [7]) it was 4 nM.

`COC(=O)c1cnc(N2CCN(c3nnc(-c4ccc(F)c(Cl)c4)c(C)c3C)CC2)nc1C(F)(F)F` [Example 20]: the IC50 in data set [1] (Table 10, values as ranges) was less than 0.1 nM; in data set [2] (setting [5]), less than 0.1 nM; in data set [2] (setting [6]), 0.1 to 1 nM; in data set [3] (Table 10, values as ranges), less than 0.1 nM.

With `Cc1c(C(O)c2ccccc2)nnc(N2CCN(c3cnc(C(C)(C)O)cn3)[C@H](C)C2)c1C` (stereo partly shown) [Example 48], the solubility (thermodynamic) (usually the concentration in solution at equilibrium with solid) in data set [4] is 425 µM (≈ 191 µg/mL). The 50% inhibitory concentration (IC50) amounted to 8 nM in data set [1] (setting [7]), 2 nM in data set [2] (setting [8]), 25 nM in data set [2] (setting [9]) and 5 nM in data set [3] (setting [7]).

With `Cc1c(Cc2ccncc2)nnc(N2CCN(c3cnc(C(C)(C)O)cn3)[C@H](C)C2)c1C` [Example 50, 2-[(R)-4-(4,5-Dimethyl-6-pyridin-4-ylmethyl-pyridazin-3-yl)-2-methyl-3,4,5,6-tetrahydro-2H-[1,2′]bipyrazinyl-5′-yl]-propan-2-ol], the solubility (thermodynamic) in data set [4] was greater than 1000 µM. Moreover, the half-maximal inhibitory concentration (IC50) came to 32 nM in data set [1] (setting [7]), 6 nM in data set [2] (setting [8]), 114 nM in data set [2] (setting [9]) and 29 nM in data set [3] (setting [7]).

Compound `Cc1c(Cc2ccccn2)nnc(N2CCN(c3cnc(C(C)(C)O)cn3)[C@H](C)C2)c1C` [Example 54, 2-[(R)-4-(4,5-Dimethyl-6-pyridin-2-ylmethyl-pyridazin-3-yl)-2-methyl-3,4,5,6-tetrahydro-2H-[1,2′]bipyrazinyl-5′-yl]-propan-2-ol] displayed a solubility (thermodynamic) in data set [4] of 619 µM (≈ 268 µg/mL). The IC50 in data set [1] (setting [7]) is 30 nM; in data set [2] (setting [8]), 7 nM; in data set [2] (setting [9]) it was 83 nM; in data set [3] (setting [7]), 22 nM.

For the compound `Cc1c(Cc2ccccc2)nnc(N2CCC(C)(c3nc4cnccc4[nH]3)CC2)c1C` [Example 59, 2-[1-(6-Benzyl-4,5-dimethyl-pyridazin-3-yl)-4-methyl-piperidin-4-yl]-1H-imidazo[4,5-c]pyridine], the IC50 in data set [1] (Table 10, values as ranges) lay within 1 to 25 nM; in data set [2] (setting [5]), 1 to 10 nM; in data set [2] (setting [6]), 1 to 25 nM; in data set [3] (Table 10, values as ranges) it was 1 to 10 nM.

In data set [4], `Cc1c(Cc2ccccc2)nnc(N2CCN(c3cnc(C(C)(C)O)cn3)[C@H](C)C2)c1C` [Example 88, 2-[(R)-4-(6-Benzyl-4,5-dimethyl-pyridazin-3-yl)-2-methyl-3,4,5,6-tetrahydro-2H-[1,2′]bipyrazinyl-5′-yl]-propan-2-ol] came in with a thermodynamic solubility of 44 µM (≈ 19 µg/mL). In addition, the IC50 in data set [1] (setting [7]) was 3 nM; in data set [2] (setting [8]) it was 1 nM; in data set [2] (setting [9]), 14 nM; in data set [3] (setting [7]), 9 nM.

In the case of `Cc1c(Cc2ccccc2)nnc(N2CCN(c3cnc(C(C)(C)O)cn3)CC2)c1C` [Example 89], in data set [4], the solubility (thermodynamic) is 11 µM (≈ 4.6 µg/mL). Moreover, the IC50 in data set [1] (setting [7]) is 15 nM; in data set [2] (setting [8]) it was 2 nM; in data set [2] (setting [9]), 60 nM; in data set [3] (setting [7]), 11 nM.

Turning to `Cc1c(Cc2ccccc2)nnc(N2CCN(c3cnc(C(C)(C)O)cn3)[C@@H](C)C2)c1C` [Example 90], in data set [4], the solubility (thermodynamic) was 18 µM (≈ 7.79 µg/mL). For the same compound, the IC50 in data set [1] (setting [7]) turned out to be 7 nM; in data set [2] (setting [8]) it was 1 nM; in data set [2] (setting [9]), 34 nM; in data set [3] (setting [7]), 6 nM.

For `CC[C@@H]1CN(c2nnc(Cc3ccccc3)c(C)c2C)CCN1c1cnc(C(C)(C)O)cn1` [Example 91], the concentration for half-maximal inhibition (IC50) in data set [1] (setting [7]) came out at 8 nM; in data set [2] (setting [8]), 5 nM; in data set [2] (setting [9]) it was 57 nM; in data set [3] (setting [7]) it was 8 nM.

Compound `C[C@@H]1CN(c2nnc(Cc3ccccc3)c3c2CCC3)CCN1c1cnc(C(C)(C)O)cn1` [Example 93] returned a thermodynamic solubility in data set [4] of 20 µM (≈ 8.89 µg/mL). Further, the IC50 stood at 3 nM in data set [1] (setting [7]), 1 nM in data set [2] (setting [8]), 14 nM in data set [2] (setting [9]) and 1 nM in data set [3] (setting [7]).

`CC(=O)c1cnc(N2CCN(c3nnc(Cc4ccccc4)c(C)c3C)C[C@H]2C)cn1` [Example 95, 1-[(R)-4-(6-Benzyl-4,5-dimethyl-pyridazin-3-yl)-2-methyl-3,4,5,6-tetrahydro-2H-[1,2]bipyrazinyl-5′-yl]-ethanone]: the IC50 is 9 nM in data set [1] (setting [7]), 8 nM in data set [2] (setting [8]), 110 nM in data set [2] (setting [9]) and 8 nM in data set [3] (setting [7]).

In the case of `Cc1c(Cc2ccccc2)nnc(N2CCN(c3ncc(C(C)(C)O)c(C(F)(F)F)n3)[C@H](C)C2)c1C` [Example 96], the concentration for half-maximal inhibition (IC50) in data set [1] (setting [7]) amounted to 4 nM; in data set [2] (setting [8]) it was 6 nM; in data set [2] (setting [9]), 62 nM; in data set [3] (setting [7]) it was 3 nM.

Take `Cc1c(Cc2ccc(F)cc2)nnc(N2CCN(c3ncc(C(C)(C)O)c(C(F)(F)F)n3)[C@H](C)C2)c1C` [Example 97]: the IC50 in data set [1] (setting [7]) is 2 nM; in data set [2] (setting [8]), 3 nM; in data set [2] (setting [9]), 35 nM; in data set [3] (setting [7]) it was 2 nM.

With `C[C@@H]1CN(c2nnc(Cc3ccccc3)c3c2CCC3)CCN1c1ncc(C(C)(C)O)c(C(F)(F)F)n1` [Example 98], the IC50 in data set [1] (setting [7]) came out at 6 nM; in data set [2] (setting [8]), 11 nM; in data set [2] (setting [9]), 69 nM; in data set [3] (setting [7]) it was 6 nM.

Regarding `C[C@@H]1CN(c2nnc(Cc3ccc(F)cc3)c3c2CCC3)CCN1c1ncc(C(C)(C)O)c(C(F)(F)F)n1` [Example 99], the IC50 came out at 3 nM in data set [1] (setting [7]), 5 nM in data set [2] (setting [8]), 72 nM in data set [2] (setting [9]) and 2 nM in data set [3] (setting [7]).

On to `CC(C)(O)c1ccc(N2CCN(c3nnc(Cc4ccc(F)cc4)c4c3CCCC4)CC2)nc1` [Example 104], for which the 50% inhibitory concentration (IC50) in data set [1] (setting [7]) came out at 9 nM; in data set [2] (setting [8]), 5 nM; in data set [2] (setting [9]) it was 70 nM; in data set [3] (setting [7]), 14 nM.

As to `CC(C)(O)c1ccc(N2CCN(c3nnc(Cc4ccc(F)cc4)c4c3CCC4)CC2)nc1` [Example 105], the IC50 in data set [1] (setting [7]) worked out at 6 nM; in data set [2] (setting [8]) it was 3 nM; in data set [2] (setting [9]), 35 nM; in data set [3] (setting [7]) it was 7 nM.

As to `Cc1c(Cc2ccc(F)cc2)nnc(N2CCN(c3ccc(C(C)(C)O)cn3)CC2)c1C` [Example 106], the IC50 in data set [1] (setting [7]) worked out at 5 nM; in data set [2] (setting [8]), 5 nM; in data set [2] (setting [9]), 76 nM; in data set [3] (setting [7]) it was 7 nM.

For `C[C@@H]1CN(c2nnc(Cc3ccccc3)c3c2CCC3)CCN1c1cc(C(F)(F)F)c(C(C)(C)O)cn1` [Example 107], the IC50 in data set [1] (setting [7]) was found to be 3 nM; in data set [2] (setting [8]), 2 nM; in data set [2] (setting [9]), 23 nM; in data set [3] (setting [7]), 3 nM.

`CC(=O)c1cnc(N2CCN(c3nnc(Cc4ccccc4)c4c3CCC4)C[C@H]2C)cc1C(F)(F)F` [Example 108]: the figures for the IC50 in data set [2] (setting [8]) and in data set [2] (setting [9]) were 4 nM and 33 nM, respectively.

As to `C[C@@H]1CN(c2nnc(Cc3ccc(F)cc3)c3c2CCC3)CCN1c1cc(C(F)(F)F)c(C(C)(C)O)cn1` [Example 109], the IC50 in data set [1] (setting [7]) was found to be 2 nM; in data set [2] (setting [8]), 3 nM; in data set [2] (setting [9]) it was 38 nM; in data set [3] (setting [7]), 2 nM.

With `CCC(O)(CC)c1cnc(N2CCN(c3nnc(Cc4ccccc4)c(C)c3C)C[C@H]2C)cn1` [Example 111], the concentration for half-maximal inhibition (IC50) in data set [1] (setting [7]) is 2 nM; in data set [2] (setting [8]), 1 nM; in data set [2] (setting [9]), 18 nM; in data set [3] (setting [7]), 1 nM.

`Cc1c(Cc2ccccc2)nnc(N2CCN(c3cnc(C(C)(O)CO)cn3)[C@H](C)C2)c1C` (stereo partly drawn) [Example 144, 2-[(R)-4-(6-Benzyl-4,5-dimethyl-pyridazin-3-yl)-2-methyl-3,4,5,6-tetrahydro-2H-[1,2]bipyrazinyl-5′-yl]-propane-1,2-diol]: the solubility (thermodynamic) in data set [4] came out at 270 µM (≈ 121 µg/mL). For the same compound, the 50% inhibitory concentration (IC50) was found to be 19 nM in data set [1] (setting [7]), 5 nM in data set [2] (setting [8]), 83 nM in data set [2] (setting [9]) and 24 nM in data set [3] (setting [7]).
